Molecular target: T1, OX2R (Homo sapiens, UniProt O43614)
T1 construct: expressed in transfected cells; host or cells: CHO (Chinese hamster ovary) cells constitutively expressing the OX2R gene and NFAT-luciferase (CHOOX2R)
T1 sequence (O43614 1-444): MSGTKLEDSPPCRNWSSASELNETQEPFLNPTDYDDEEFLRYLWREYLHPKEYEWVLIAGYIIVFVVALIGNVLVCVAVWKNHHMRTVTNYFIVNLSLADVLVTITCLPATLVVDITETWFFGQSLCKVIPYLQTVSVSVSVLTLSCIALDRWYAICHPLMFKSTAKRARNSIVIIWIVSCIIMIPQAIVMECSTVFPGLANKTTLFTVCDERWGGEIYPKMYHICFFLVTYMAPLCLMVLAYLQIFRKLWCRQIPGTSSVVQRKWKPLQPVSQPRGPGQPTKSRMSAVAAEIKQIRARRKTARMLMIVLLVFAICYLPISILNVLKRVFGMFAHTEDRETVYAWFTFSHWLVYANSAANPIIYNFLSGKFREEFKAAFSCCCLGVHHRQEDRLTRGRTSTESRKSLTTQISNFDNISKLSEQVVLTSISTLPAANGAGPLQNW
Assay: Evaluation of agonist activity against OX2R (CHOOX2R cells, Fura2AM fluorescence, FDSS3000)
Format: cell-based
Details: relative to orexin-A as full agonist (100%), CHOOX2R cells; for Response (0.1 μM (%)): test compound 0.1 μM; for Response (1.0 μM (%)): test compound 1.0 μM; for Response (10 μM (%)): test compound 10 μM
Method in brief: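 CHO cells stably expressing human OX2R (and NFAT-luciferase), cultured 48 h in 5% FBS DMEM. Agonist response read as change in Fura2AM fluorescence on compound addition in HEPES buffer. Final compound concentrations 0.1, 1.0 or 10 μM; 1% DMSO.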

Response (0.1 μM (%)) [%] | Response (1.0 μM (%)) [%] | Response (10 μM (%)) [%] | SMILES
<5 | 27 | 39 | COc1ccccc1C(=O)NCCNc1cccc(NS(=O)(=O)c2cc(-c3cccc(C(=O)N(C)C)c3)ccc2C)c1 [Example 106, 3′-(N-(3-((2-(2-methoxybenzamido)ethyl)amino)phenyl)sulfamoyl)-N,N,4′-trimethyl-[1,1′-biphenyl]-3-carboxamide]
65 | 79 | 82 | COc1ccccc1C(=O)NCCNc1cccc(NS(=O)(=O)c2cc(-c3cccc(C(=O)N(C)C)c3)ccc2F)c1 [Example 107, 4′-fluoro-3′-(N-(3-((2-(2-methoxybenzamido)ethyl)amino)phenyl)sulfamoyl)-N,N-dimethyl-[1,1′-biphenyl]-3-carboxamide]
44 | 81 | 82 | CCOc1ccc(-c2cccc(C(=O)N(C)C)c2)cc1S(=O)(=O)Nc1cccc(NCCNC(=O)c2ccccc2OC)c1 [Example 108, 4′-ethoxy-3′-(N-(3-((2-(2-methoxybenzamido)ethyl)amino)phenyl)sulfamoyl)-N,N-dimethyl-[1,1′-biphenyl]-3-carboxamide]
13 | 46 | 47 | COc1ccccc1C(=O)NCCNc1cccc(NS(=O)(=O)c2cc(-c3cccc(F)c3)ccc2OC)c1 [Example 109, N-(2-((3-(3′-fluoro-4-methoxy-[1,1′-biphenyl]-3-ylsulfonamido)phenyl)amino)ethyl)-2-methoxybenzamide]
<5 | <5 | 28 | COc1ccccc1C(=O)NCCNc1cccc(NS(=O)(=O)c2cccc(-c3cccc(C(=O)N(C)C)c3)c2)c1 [Example 110, 3′-(N-(3-((2-(2-methoxybenzamido)ethyl)amino)phenyl)sulfamoyl)-N,N-dimethyl-[1,1′-biphenyl]-3-carboxamide]
<5 | 131 | 139 | COc1ccccc1C(=O)NCCN(C)c1cccc(NS(=O)(=O)c2cc(-c3cccc(C(=O)N(C)C)c3)ccc2OC)c1 [Example 112, 4′-methoxy-3′-(N-(3-((2-(2-methoxybenzamido)ethyl) (methyl)amino)phenyl)sulfamoyl)-N,N-dimethyl-[1,1′-biphenyl]-3-carboxamide]
